Results published in patent US4039652A, “Column method of immunoassay employing an immobilized binding partner” (Miles Laboratories, Inc., priority 1973, dated 1977).

Assays:
digitoxin antibodies = experiment: Column radioimmunoassay for digitoxin, Example 4; format: binding, rabbit; conditions: control = 100%, PBS buffer with 0.1% Tween 20
Method: 90 mg of digitoxin was suspended in 4 ml of ethanol at ambient temperature. 4 ml of a 0.1M sodium metaperiodate solution was added dropwise. The resulting solution was stirred for 25 minutes and 4 drops of 0.1M ethylene glycol was added. This solution was slowly added to 130 mg of bovine serum albumin in 4 ml of water previously adjusted to pH 9.5 with 5% K2 CO3. The pH was maintained between 9.0 and 9.5 with 5% K2 CO3. After 45 minutes, 0.05 g of NaBH4 in 4 ml of water was added. After 3 hours the pH was lowered to 6.5 with 1M formic acid. After 1 hour, the pH was raised to pH 8.5 with 1M NH4 OH and the mixture was dialyzed against distilled water overnight at 4° C. The next day, the suspension was centrifuged for 2 hours at 1500 rpm. The supernatant was concentrated to 6 ml in an Amicon U-2 ultrafilter, available from Amicon Corporation, Lexington, Massachusetts, and lyophilized.
The same procedure as described in Example 3 was followed except that the digitoxin-bovine serum albumin conjugate was prepared according to the method described in procedure a. above and this conjugate was dissolved in a few drops of dilute NaOH before being mixed with the PBS buffer.
The same procedure as described in Example 3 was followed.
The same procedure as described in Example 3 was followed except that the columns were equilibrated with 10 ml of PBS buffer containing 0.1% Tween 20, a detergent available from the Atlas Powder Company, Wilmington, Delaware, and that PBS buffer containing 0.1% Tween 20 was used in place of PBS buffer. The standard digitoxin solutions were prepared to the following concentrations: 5 ng/ml, 10 ng/ml, 20 ng/ml, 30 ng/ml, 40 ng/ml, and 50 ng/ml.
The results were as follows (with % bound being calculated based on setting 100% bound as the % bound of the control): […]

digoxin antibodies = experiment: Column radioimmunoassay for digoxin (competition with 3-0-succinyl digoxigenin tyrosine 125I); format: binding, rabbit; conditions: control = 100%, 30 + 30 minutes, pH 7.0
Method: 400 mg of digoxin was suspended in 20 ml of absolute ethanol at ambient temperature. 0.45 g of sodium metaperiodate in 20 ml of water was added dropwise with stirring. After 25 minutes, 0.5 ml of 1M ethylene glycol was added. Five minutes later, this reaction mixture was added dropwise with stirring to 560 mg of bovine serum albumin in 20 ml of water previously adjusted to pH 9.5 with 5% K2 CO3. The pH was maintained between 9.0 and 9.5 by the dropwise addition of 5% K2 CO3. After 45 minutes 0.3 g of sodium borohydride in 20 ml of water was added. Three hours later, the pH was lowered to 6.5 with 1M formic acid. After 1 hour, the pH was raised to 8.5 with 1M NH4 OH. The entire reaction mixture was then dialyzed against distilled water overnight at 4° C. The next day, the pH was lowered to 4.5 with 0.1N HCl. After 1 hour at ambient temperature and 3 hours at 4° C., the suspension was centrifuged for 1 hour at 1500 rpm. The precipitate was dissolved in 21 ml of 0.15M NaHCO3, dialyzed against distilled water for 4 days, and lyophilized.
Rabbits were injected with inocula consisting of a 50/50 mixture of 4 mg/ml digoxin-bovine serum albumin conjugate, prepared according to the method described in procedure a., in 0.0075M phosphate-0.15M NaCl buffer (pH 7.0) and Freund's complete adjuvant. Four sites along the neck and back of the animals and each footpad were injected with 0.1 ml of this mixture. This procedure was repeated on the first and third weeks. Also, every second week the rabbits were injected intramuscularly with 0.4 ml of the inoculum. At one month intervals, ear bleedings were taken.
One (1.0) gram of CNBr-activated Sepharose 4B available from Pharmacia AB, Uppsala, Sweden, was added to 200 ml of 0.001N HCl, mixed for 15 minutes, and filtered under vacuum. The swollen Sepharose 4B was then washed with 200 ml of PBS buffer (0.0075 M phosphate-0.15M NaCl, pH 7.0) and resuspended in 3.0 ml of PBS buffer. Whole, unfractionated, diluted antiserum from procedure b. was added with stirring. The reaction mixture was stirred for 2 hours at ambient temperature and then for 22 hours at 4° C. The antibody-coupled Sepharose 4B suspension was washed with 400 ml of PBS buffer and an equal volume of PBS buffer containing 0.1% NaN3 was added. This mixture was in turn diluted with the addition of a 50% suspension of Sepharose 4B in distilled water to give a final dilution of antibody-coupled Sepharose 4B which would bind about half of the radioactive labeled antigen following procedure d. below where the fluid sample tested contained no digoxin. Two (2.0) ml volumes of the diluted antibody-coupled Sepharose 4B were added to 3 ml plastic Stylex syringes, available from Pharmaseal Laboratories, Glendale, California, fitted with polyethylene support disks to give 1 ml Sepharose 4B columns.
The columns were then equilibrated with 10 ml volumes of PBS buffer and allowed to drain. Standard digoxin solutions were prepared for the following digoxin concentrations: 0.5 ng/ml, 1.0 ng/ml, 2.0 ng/ml, 3.0 ng/ml, 4.0 ng/ml, and 5.0 ng/ml. A control containing no digoxin and the six digoxin standards were added to columns prepared according to procedure c. above in 0.5 ml volumes and allowed to incubate for 30 minutes. The reference sample containing 3-0-succinyl digoxigenin tyrosine ^125 I solution was then added to each column in 0.5 ml portions and allowed to incubate for 30 minutes. The columns were then counted using a Gammacord gamma counter. The columns were washed three times with 3.0 ml volumes of PBS buffer and counted again. The results were as follows (with % bound being calculated based on setting 100% as the % bound of the control): […]

HPL antibodies [1] = experiment: Column saturation radioimmunoassay for human placental lactogen (competition with 125I-HPL), Example 2; format: binding, rabbit; conditions: control = 100%, 30 minutes, pH 8.0
Method: Rabbits were injected with priming inocula consisting of a 50/50 mixture of 2.8 mg/ml HPL antigen in physiological saline solution (0.9%) and Freund's complete adjuvant. Each footpad was injected with 0.2 ml of this mixture. On days 21, 23, 56, 58, 91, 93, 126 and 128, 0.5 ml of booster inocula per day was injected intravenously into the animals. The booster inocula consisted of 0.7 mg/ml HPL antigen in physiological saline solution. Test bleedings were made on days 36 and 70, and on day 140 the animals were exsanguinated
The columns were prepared as in Example 1 using whole unfractionated HPL antiserum from procedure a. above.
The procedure as in Example 1c. was followed except that the borate-human serum albumin buffer was prepared to pH 8.0, the incubation times were 30 minutes, and the reference sample contained HPL labeled with ^125 I. […] The results were as follows (with % bound being calculated based on setting 100% bound as the % bound of the control): […]

HPL antibodies [2] = experiment: Column enzyme immunoassay for HPL with peroxidase labeled HPL, Example 6; format: binding; conditions: for % Color Bound: control = 100; for OD460: optical density of washings at 460 nm (control 1.2)
Method: HPL was labeled with peroxidase according to the method described in Immunochemistry 6: 43(1969) with the following modifications: 10 mg (HPL and 10 mg horseradish peroxidase were dissolved in 1.4 ml of 0.05M carbonate buffer (pH 9), 0.05 ml of 3% glutaraldehyde solution was added to the mixture. The mixture was then rotated at ambient temperature for 90 minutes and then dialyzed against 128 ml of 0.1M borate buffer (pH 8) with several buffer changes.
The same procedure as in Example 1b was followed.
The packed columns were equilibrated by adding 20 ml portions of a borate buffer (pH 9) to the columns and allowing them to drain. The borate buffer was prepared as in Example 1c. HPL standards were prepared for the following HPL concentrations 1000 ng/ml and 62 ng/ml. A control containing no HPL and the two HPL standards were added to columns, prepared according to procedure b above in 0.5 ml volumes and allowed to incubate for 25 minutes. The reference sample containing peroxidase labeled HPL, prepared as in procedure a. above, was then added to each column in 0.5 ml portions and allowed to incubate for 25 minutes. The columns were washed with 10 ml volumes of 0.1M borate buffer (pH 8) followed by 3 ml volumes of 0.1M phosphate buffer (pH 6). A substrate-indicator solution, prepared by mixing 0.28 ml of 0.03% H2 O2 in water, 0.1 ml of 0.25% 3,3'-dimethylbenzidine, and 0.12 ml of 0.1M phosphate buffer (pH 6), was added to each column and allowed to incubate for 10 minutes. The columns were each washed with a 3 ml of volume of 0.1N HCl and the optical density (OD) of the washings were read at 460 nm with the following results: […]

C[C@H]1O[C@@H](O[C@H]2[C@@H](O)C[C@H](O[C@H]3[C@@H](O)C[C@H](O[C@H]4CC[C@@]5(C)[C@H](CC[C@@H]6[C@@H]5CC[C@]5(C)[C@@H](C7=CC(=O)OC7)CC[C@]65O)C4)O[C@@H]3C)O[C@@H]2C)C[C@H](O)[C@@H]1O [Digitoxin, digitoxin]
% Bound (digitoxin antibodies; Digitoxin concentration 5.0 ng/ml): 83% | % Bound (digitoxin antibodies; Digitoxin concentration 10.0 ng/ml): 73.5% | % Bound (digitoxin antibodies; Digitoxin concentration 20.0 ng/ml): 64% | % Bound (digitoxin antibodies; Digitoxin concentration 30.0 ng/ml): 56.6% | % Bound (digitoxin antibodies; Digitoxin concentration 40.0 ng/ml): 50.2% | % Bound (digitoxin antibodies; Digitoxin concentration 50.0 ng/ml): 42%

C[C@H]1O[C@@H](O[C@H]2[C@@H](O)C[C@H](O[C@H]3[C@@H](O)C[C@H](O[C@H]4CC[C@@]5(C)[C@H](CC[C@@H]6[C@@H]5C[C@@H](O)[C@]5(C)[C@@H](C7=CC(=O)OC7)CC[C@]65O)C4)O[C@@H]3C)O[C@@H]2C)C[C@H](O)[C@@H]1O [Digoxin, digoxin]
% Bound (digoxin antibodies; Digoxin concentration 0.5 ng/ml): 92% | % Bound (digoxin antibodies; Digoxin concentration 1.0 ng/ml): 79.5% | % Bound (digoxin antibodies; Digoxin concentration 2.0 ng/ml): 60.2% | % Bound (digoxin antibodies; Digoxin concentration 3.0 ng/ml): 49.0% | % Bound (digoxin antibodies; Digoxin concentration 4.0 ng/ml): 41.3% | % Bound (digoxin antibodies; Digoxin concentration 5.0 ng/ml): 34.7%

B1: HPL: human placental lactogen (HPL) (protein, UniProt P0DML2 27-217, looked up)
Chorionic somatomammotropin …: VQTVPLSRLFDHAMLQAHRAHQLAIDTYQEFEETYIPKDQKYSFLHDSQTSFCFSDSIPTPSNMEETQQKSNLELLRISLLLIESWLEPVRFLRSMFANNLVYDTSDSDDYHLLKDLEEGIQTLMGRLEDGSRRTGQILKQTYSKFDTNSHNHDALLKNYGLLYCFRKDMDKVETFLRMVQCRSVEGSCGF
% Bound (labeled HPL) (HPL antibodies [1]; HPL concentration 1 ng/ml): 98% | % Bound (labeled HPL) (HPL antibodies [1]; HPL concentration 15 ng/ml): 70% | % Bound (labeled HPL) (HPL antibodies [1]; HPL concentration 62 ng/ml): 42% | % Bound (labeled HPL) (HPL antibodies [1]; HPL concentration 1000 ng/ml): 9% | % Color Bound (HPL antibodies [2]; HPL concentration 62 ng/ml): 63% | OD460 (HPL antibodies [2]; HPL concentration 62 ng/ml): 0.96 | % Color Bound (HPL antibodies [2]; HPL concentration 1000 ng/ml): 35% | OD460 (HPL antibodies [2]; HPL concentration 1000 ng/ml): 0.78
